Experimental data published in patent publication US20050119180A1, “Use of angiotensin 1-7 for enhancing cardiac function” (priority 2002, published 2005).

How the values were obtained:
[1] = test system: isolated aortic rings of infarcted rats; experiment: Endothelium-dependent relaxation in isolated aortic rings of treated MI rats; format: in vivo, rat; settings: aortic rings of MI rats after eight weeks of Ang-(1-7); P<0.05 versus MI control
Method: (§1) The Animal Research Committee of the University of Groningen approved this study. Left coronary artery ligations were performed in 39 male Sprague-Dawley rats weighing 250 to 300 g (Harlan; Zeist, the Netherlands).^14 Perioperative mortality was 49%. Two weeks after induction of MI, rats were randomly allocated to intravenous infusion of either Ang-(1-7) (24 μg/kg per hour; n=10) or saline (n=10) by osmotic minipumps (Alzet 2004). Sham-operated controls (n=10) received saline. After eight weeks of treatment, hemodynamic studies were performed under isoflurane anesthesia with a microtip pressure transducer,^15 coronary flow was measured in a Langendorff setup,^14 endothelial function was tested in isolated aortic rings,^14 and plasma Ang-(1-7) levels were measured by radioimmunoassay.^16
Endothelial dysfunction is a key feature in heart failure.^14 To examine the effects of Ang-(1-7) treatment on this aspect of cardiac failure, we investigated endothelium-dependent relaxation in isolated aortic rings. Phenylephrine elicited similar contractile responses in all three groups (data not shown). […] The relaxation in response to the endothelium independent vasodilator NaNO2 (10^−2 mol/L) was equal in the three groups (data not shown).

[2] = test system: male Sprague-Dawley rats with myocardial infarction (left coronary artery ligation); experiment: General characteristics and histology after eight weeks of treatment in rat coronary artery ligation (MI) model; format: in vivo
Method: as §1
Midventricular slices were processed for histochemical analysis. Infarct size was determined on picrosirius red/fast green-stained sections and was expressed as the percentage of scar length of total left ventricular circumference.^14 Rats with infarcts smaller than 20% were excluded (n=3 for Ang-(1-7) and n=1 for saline-treated rats). Capillary density was determined on sections stained with biotin-labeled Griffonia siinplicifolia lectin I (GSL-I) and hematoxylin and was expressed as the number of capillaries per mm^2. Myocyte cross-sectional area was measured on hematoxylin/eosin-stained sections.
Data are presented as mean±SEM. Statistical analysis between the groups was performed by one-way ANOVA followed by Bonferroni's t test. Differences in dose-response curves were tested by ANOVA for repeated measures with Greenhouse-Geisser correction for asphericity. Differences were considered significant at P<0.05.

[3] = Plasma Ang-(1-7) levels by radioimmunoassay at end of intravenous infusion; format: in vivo, rat; settings: MI rats, iv infusion 24 μg/kg per hour
Method: as §1

[4] = test system: hearts of infarcted rats (Langendorff setup); experiment: Ex vivo coronary flow in a Langendorff setup, hearts of treated MI rats; set-up: species or system rat
Method: as §1
(§2) After eight weeks of treatment, cardiac function was measured in vivo in anesthetized rats. […] Coronary flow was measured ex vivo in a Langendorff setup. […] Coronary endothelial function and maximal coronary flow were tested by a two-minute infusion of 3×10^−8 mol/L bradykinin and 10^−5 mol/L adenosine, respectively.

[5] = test system: male Sprague-Dawley rats with myocardial infarction (left coronary artery ligation); experiment: In vivo hemodynamic studies under isoflurane anesthesia with microtip pressure transducer in MI rats; set-up: species or system rat
Method: as §1, §2

[6] = Ang-(1-7) 24 μg/kg per hour iv, eight weeks, mean ± SEM

## CC[C@H](C)[C@H](NC(=O)[C@H](Cc1ccc(O)cc1)NC(=O)[C@@H](NC(=O)[C@H](CCCNC(=N)N)NC(=O)[C@@H](N)CC(=O)O)C(C)C)C(=O)N[C@@H](Cc1c[nH]cn1)C(=O)N1CCC[C@H]1C(=O)O [Ang-(1-7), angiotensin-(1-7)]
[1]
  metacholine-induced relaxation of phenylephrine pre-contracted aortic rings, in words: identical to sham rats
[2]; Ang-(1-7) 24 μg/kg per hour iv, eight weeks, GSL-I lectin stain, mean ± SEM
  capillary density: 2578 ± 176 N/mm^2
[2]; Ang-(1-7) 24 μg/kg per hour iv, eight weeks, hematoxylin/eosin-stained sections, mean ± SEM
  myocyte cross-sectional area: 409 ± 21
[2]; [6]
  LVW/BW (left ventricular weight body weight ratio): 3.42 ± 0.10 mg/g
  infarct size (percentage of scar length of total left ventricular circumference): 29.6 ± 3.3%
[2]; eight weeks of Ang-(1-7)
  myocyte cross-sectional area increase after infarction, in words: attenuated to a nonsignificant level
[2]; eight weeks of treatment
  capillary density versus saline-treated MI group, in words: did not differ
  infarct size versus saline-treated MI group, in words: did not differ
[3]; end of eight weeks of treatment, mean ± SEM
  [Ang-(1-7)] plasma concentration of angiotensin-(1-7): 917.8 ± 194.1 pmol/L
[3]; end of treatment
  increase of plasma levels of the peptide compared with MI controls: 40 fold
[3]; male, Sprague-Dawley, rat, plasma, 24 ug/kg per hour, end of eight weeks of treatment, mean ± SEM, read-out: [Ang-(1-7)] plasma concentration of angiotensin-(1-7)
  level at time molar at 1344 h: 0.918 ± 0.194 nM
[4]; Langendorff, MI rats after eight weeks of Ang-(1-7)
  baseline coronary flow compared with sham-operated hearts, in words: almost completely preserved
[4]; Langendorff, adenosine 10^−5 mol/L, MI rats after eight weeks of Ang-(1-7)
  maximal coronary flow after adenosine infusion compared with sham, in words: the difference did not reach statistical significance
[4]; Langendorff, bradykinin 3×10^−8 mol/L, MI rats after eight weeks of Ang-(1-7)
  bradykinin-dependent coronary flow compared with sham, in words: not significantly impaired
[4]; hearts of MI rats after eight weeks of Ang-(1-7) 24 μg/kg per hour iv, baseline
  Ex vivo coronary flow, baseline: 8.2 ± 0.6 ml/min per g ventricular weight
[4]; hearts of MI rats after eight weeks of Ang-(1-7), two-minute infusion of adenosine 10^−5 M (maximal coronary flow)
  Ex vivo coronary flow, adenosine 10^−5 M: 12.3 ± 0.8 ml/min per g ventricular weight
[4]; hearts of MI rats after eight weeks of Ang-(1-7), two-minute infusion of bradykinin 3 × 10^−8 M (coronary endothelial function)
  Ex vivo coronary flow, bradykinin 3 × 10^−8 M: 11.1 ± 0.7 ml/min per g ventricular weight
[5]; MI rats infused with Ang-(1-7), eight weeks
  mean arterial pressure, in words: an increase in mean arterial pressure was found
[5]; MI rats, eight weeks of Ang-(1-7) treatment
  reduction in left ventricular end-diastolic pressure: 40%
[5]; anesthetized MI rats after eight weeks of treatment
  cardiac function (hemodynamic parameters LVP, LVEDP, MAP, +dP/dt, −dP/dt) compared with sham, in words: none of these parameters were significantly deteriorated, except the systolic dP/dt
